Experimental data published in patent US7880002B2, “Substituted piperazinyl-pyrrolidine compounds useful as chemokine receptor antagonists” (Millennium Pharmaceuticals, Inc., priority 2004, dated 2011).

Molecular target: T1, CCR1 (Homo sapiens, UniProt P32246)
T1 construct: a monocytic derived cell line that endogenously expresses CCR1; host or cells: THP-1 cells
T1 sequence (P32246 1-355): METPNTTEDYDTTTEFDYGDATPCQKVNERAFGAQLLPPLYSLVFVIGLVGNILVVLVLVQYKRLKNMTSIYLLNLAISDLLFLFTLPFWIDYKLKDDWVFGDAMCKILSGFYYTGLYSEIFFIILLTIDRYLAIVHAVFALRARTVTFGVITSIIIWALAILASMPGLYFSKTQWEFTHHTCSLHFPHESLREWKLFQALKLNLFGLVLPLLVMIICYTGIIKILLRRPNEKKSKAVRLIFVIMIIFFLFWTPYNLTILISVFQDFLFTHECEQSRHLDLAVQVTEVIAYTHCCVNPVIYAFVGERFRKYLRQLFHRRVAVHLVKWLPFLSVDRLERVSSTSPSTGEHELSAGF
Experiment: CCR1 inhibition (THP-1 FLIPR assay / THP-1 whole cell radioligand binding assay; the patent does not say which gave the values)
Format: cell-based
Settings: threshold list, less than 100 nm; compounds of Table 1; read-out: inhibitory activity
Description: The primary screening assay is a FLIPR® (Fluorometric Imaging Plate Reader, available from Molecular Devices Corporation, Sunnyvale, Calif.) assay using THP-1 cells (ATCC, Catalog No. TIB 202), a monocytic derived cell line that endogenously expresses CCR1.
The cells were resuspended at 1×10^6 cells/ml in dye loading media (growth media (RPMI+10% FBS (Fetal Bovine serum)+5.5×10^−5M 2-mercaptoethanol)+10 mM HEPES (N-2-hydroxyethylpiperazine-N′-2-ethane-sulfonic acid)+2.5 mM probenecid+fluo-3 (1:250)). The cells were incubated for 1 hour at 37° C. and then washed in FLIPR wash buffer (100 mL 10× HBSS (Hanks Buffered Saline Solution) (w/Ca++/Mg++)+20 mL 1M HEPES+1 g BSA+10 mL 250 mM probenecid+water (to make 1 L)) and plated at 50,000 cells/well in black/clear 384 well plates. The plates were transferred to FLIPR where the ability of different concentrations of compounds to inhibit RANTES induced calcium flux was assessed. Inhibition of the CCR1 response was reflected by a decrease of the fluorescence signal relative to the positive controls (RANTES alone).
THP-1 Whole Cell Radioligand Binding Assay
The cells were washed with PBS (phosphate buffered saline) and resuspended in binding buffer (10 mM HEPES pH 7.2, 1× HBSS (w/Ca^2+, Mg^2+) 0.5% BSA, 0.02% Na-azide) at 4×10^6 cells/ml (for 200, 000 cells/well). Cells were incubated with 0.1 to 0.2 nM [^125I]-labeled MIP-1α with or without unlabeled competitor (MIP-1α) or various concentrations of compounds for 60 minutes at room temperature. The assay was terminated by vacuum filtration through glass fiber filters (GF/B, Packard) which were presoaked in 0.3% polyethyleneimine. The filters were washed with wash buffer (10 mM HEPES, pH 7.2, 1 mM CaCl2, 5 mM MgCl2 0.5M NaCl), dried and the amount of bound radioactivity was determined by scintillation counting.

## Cc1nc(C(F)(F)F)nc(N2C[C@@H](O)[C@H](N3CCN(C(=O)c4ccc(Cl)cc4)CC3)C2)c1C (stereo in doubt) [Example 119, 4-[4-(4-chlorobenzoyl)piperazin-1-yl]-1-[5,6-dimethyl-2-(trifluoromethyl)pyrimidin-4-yl]pyrrolidin-3-ol]
  IC50: < 0.1 µM

## CCc1cc(C(F)(F)F)nc(N2C[C@@H](O)[C@H](N3CCN(C(=O)c4ccc(Cl)cc4)CC3)C2)n1 (stereo in doubt) [Example 121, 4-[4-(4-chlorobenzoyl)piperazin-1-yl]-1-[4-ethyl-6-(trifluoromethyl)pyrimidin-2-yl]pyrrolidin-3-ol]
  IC50: < 0.1 µM

## CC(C)c1cc(C(F)(F)F)nc(N2C[C@@H](O)[C@H](N3CCN(C(=O)c4ccc(Cl)cc4)CC3)C2)n1 (stereo in doubt) [Example 123, 4-[4-(4-chlorobenzoyl)piperazin-1-yl]-1-[4-isopropyl-6-(trifluoromethyl)pyrimidin-2-yl]pyrrolidin-3-ol]
  IC50: < 0.1 µM

## Cc1nc2ccccc2nc1N1C[C@H](O)[C@@H](N2CCN(C(=O)c3ccc(Cl)cc3)CC2)C1 (stereo in doubt) [Example 125, 4-[4-(4-chlorobenzoyl)piperazin-1-yl]-1-(3-methylquinoxalin-2-yl)pyrrolidin-3-ol]
  IC50: < 0.1 µM

## O=C(c1ccc(Cl)cc1)N1CCN([C@H]2CN(c3cc(C(F)(F)F)c4ccccc4n3)C[C@@H]2O)CC1 (stereo in doubt) [Example 127, 4-[4-(4-chlorobenzoyl)piperazin-1-yl]-1-[4-(trifluoromethyl)quinolin-2-yl]pyrrolidin-3-ol]
  IC50: < 0.1 µM

## O=C(c1ccc(Cl)cc1)N1CCN([C@H]2CN(c3ncnc4cc(C(F)(F)F)ccc34)C[C@@H]2O)CC1 (stereo in doubt) [Example 132, 4-[4-(4-chlorobenzoyl)piperazin-1-yl]-1-[7-(trifluoromethyl)quinazolin-4-yl]pyrrolidin-3-ol]
  IC50: < 0.1 µM

## Cc1cc(N2C[C@@H](O)[C@H](N3CCN(C(=O)c4ccc(Cl)cc4)CC3)C2)nc(C(F)(F)F)n1 (stereo in doubt) [Example 146, 4-[4-(4-chlorobenzoyl)piperazin-1-yl]-1-[6-methyl-2-(trifluoromethyl)pyrimidin-4-yl]pyrrolidin-3-ol]
  IC50: < 0.1 µM

## O=C(c1ccc(Cl)cc1)N1CCN([C@@H]2CN(c3ncnc4cc(Cl)c(F)cc34)C[C@H]2O)CC1 (stereo in doubt) [Example 161, 4-[4-(4-chlorobenzoyl)piperazin-1-yl]-1-(7-chloro-6-fluoroquinazolin-4-yl)pyrrolidin-3-ol]
  IC50: < 0.1 µM

## COc1ccc2nc(C(F)(F)F)nc(N3C[C@H](O)[C@@H](N4CCN(C(=O)c5ccc(Cl)cc5)CC4)C3)c2c1 (stereo in doubt) [Example 165, 4-[4-(4-chlorobenzoyl)piperazin-1-yl]-1-[6-methoxy-2-(trifluoromethyl)quinazolin-4-yl]pyrrolidin-3-ol]
  IC50: < 0.1 µM

## O=C(c1ccc(Cl)cc1)N1CCN([C@H]2CN(c3nc(C(F)(F)F)nc4cc(F)ccc34)C[C@@H]2O)CC1 (stereo in doubt) [Example 171, 4-[4-(4-chlorobenzoyl)piperazin-1-yl]-1-[7-fluoro-2-(trifluoromethyl)quinazolin-4-yl]pyrrolidin-3-ol]
  IC50: < 0.1 µM

## O=C(c1ccc(Cl)cc1)N1CCN([C@H]2CN(c3nc(C(F)(F)F)nc4cccc(F)c34)C[C@@H]2O)CC1 (stereo in doubt) [Example 172, 4-[4-(4-chlorobenzoyl)piperazin-1-yl]-1-[5-fluoro-2-(trifluoromethyl)quinazolin-4-yl]pyrrolidin-3-ol]
  IC50: < 0.1 µM

## O=C(c1ccc(Cl)cc1)N1CCN([C@H]2CN(c3nc(C(F)(F)F)nc4ccc(Cl)cc34)C[C@@H]2O)CC1 (stereo in doubt) [Example 173, 4-[4-(4-chlorobenzoyl)piperazin-1-yl]-1-[6-chloro-2-(trifluoromethyl)quinazolin-4-yl]pyrrolidin-3-ol]
  IC50: < 0.1 µM

## Cc1ccc2nc(C(F)(F)F)nc(N3C[C@H](O)[C@@H](N4CCN(C(=O)c5ccc(Cl)cc5)CC4)C3)c2c1 (stereo in doubt) [Example 174, 4-[4-(4-chlorobenzoyl)piperazin-1-yl]-1-[6-methyl-2-(trifluoromethyl)quinazolin-4-yl]pyrrolidin-3-ol]
  IC50: < 0.1 µM

## O=C(c1ccc(Cl)cc1)N1CCN([C@H]2CN(c3nc(C(F)(F)F)nc4cccc(Cl)c34)C[C@@H]2O)CC1 (stereo in doubt) [Example 176, 4-[4-(4-chlorobenzoyl)piperazin-1-yl]-1-[5-chloro-2-(trifluoromethyl)quinazolin-4-yl]pyrrolidin-3-ol]
  IC50: < 0.1 µM

## O=C(c1ccc(Cl)cc1)N1CCN([C@H]2CN(c3nc(C(F)(F)F)nc4c(F)cccc34)C[C@@H]2O)CC1 (stereo in doubt) [Example 178, 4-[4-(4-chlorobenzoyl)piperazin-1-yl]-1-[8-fluoro-2-(trifluoromethyl)quinazolin-4-yl]pyrrolidin-3-ol]
  IC50: < 0.1 µM

## O=C(c1ccc(Cl)cc1)N1CCN([C@H]2CN(c3nc(C(F)(F)F)nc4cc(F)c(F)cc34)C[C@@H]2O)CC1 (stereo in doubt) [Example 179, 4-[4-(4-chlorobenzoyl)piperazin-1-yl]-1-[6,7-difluoro-2-(trifluoromethyl)quinazolin-4-yl]pyrrolidin-3-ol]
  IC50: < 0.1 µM

## COC(=O)c1ccc2nc(C(F)(F)F)nc(N3C[C@@H](O)[C@H](N4CCN(C(=O)c5ccc(Cl)cc5)CC4)C3)c2c1 (stereo in doubt) [Example 180, methyl 4-{3-[4-(4-chlorobenzoyl)piperazin-1-yl]-4-hydroxypyrrolidin-1-yl}-2-(trifluoromethyl)quinazoline-6-carboxylate]
  IC50: < 0.1 µM

## O=C(O)c1ccc2nc(C(F)(F)F)nc(N3C[C@@H](O)[C@H](N4CCN(C(=O)c5ccc(Cl)cc5)CC4)C3)c2c1 (stereo in doubt) [Example 181, 4-{3-[4-(4-chlorobenzoyl)piperazin-1-yl]-4-hydroxypyrrolidin-1-yl}-2-(trifluoromethyl)quinazoline-6-carboxylic acid]
  IC50: < 0.1 µM

## CCOc1ccc2nc(C(F)(F)F)nc(N3C[C@H](O)[C@@H](N4CCN(C(=O)c5ccc(Cl)cc5)CC4)C3)c2c1 (stereo in doubt) [Example 184, 4-[4-(4-chlorobenzoyl)piperazin-1-yl]-1-[6-ethoxy-2-(trifluoromethyl)quinazolin-4-yl]pyrrolidin-3-ol]
  IC50: < 0.1 µM

## Nc1ccc2nc(C(F)(F)F)nc(N3C[C@H](O)[C@@H](N4CCN(C(=O)c5ccc(Cl)cc5)CC4)C3)c2c1 (stereo in doubt) [Example 186, 1-[6-amino-2-(trifluoromethyl)quinazolin-4-yl]-4-[4-(4-chlorobenzoyl)piperazin-1-yl]pyrrolidin-3-ol]
  IC50: < 0.1 µM

## CN(C)c1ccc2nc(C(F)(F)F)nc(N3C[C@H](O)[C@@H](N4CCN(C(=O)c5ccc(Cl)cc5)CC4)C3)c2c1 (stereo in doubt) [Example 187, 4-[4-(4-chlorobenzoyl)piperazin-1-yl]-1-[6-(dimethylamino)-2-(trifluoromethyl)quinazolin-4-yl]pyrrolidin-3-ol]
  IC50: < 0.1 µM

## O=C(c1ccc(Cl)cc1)N1CCN([C@H]2CN(c3nc(C(F)(F)F)nc4ccc([N+](=O)[O-])cc34)C[C@@H]2O)CC1 (stereo in doubt) [Example 188, 4-[4-(4-chlorobenzoyl)piperazin-1-yl]-1-[6-nitro-2-(trifluoromethyl)quinazolin-4-yl]pyrrolidin-3-ol]
  IC50: < 0.1 µM

## COC(=O)Nc1ccc2nc(C(F)(F)F)nc(N3C[C@H](O)[C@@H](N4CCN(C(=O)c5ccc(Cl)cc5)CC4)C3)c2c1 (stereo in doubt) [Example 190, methyl [4-{3-[4-(4-chlorobenzoyl)piperazin-1-yl]-4-hydroxypyrrolidin-1-yl}-2-(trifluoromethyl)quinazolin-6-yl]carbamate]
  IC50: < 0.1 µM

## NC(=O)Nc1ccc2nc(C(F)(F)F)nc(N3C[C@H](O)[C@@H](N4CCN(C(=O)c5ccc(Cl)cc5)CC4)C3)c2c1 (stereo in doubt) [Example 194, N-[4-{3-[4-(4-chlorobenzoyl)piperazin-1-yl]-4-hydroxypyrrolidin-1-yl}-2-(trifluoromethyl)quinazolin-6-yl]urea]
  IC50: < 0.1 µM
